Data taken from paper PMC2573961 (PLoS ONE, 2008).
Each block holds one sequence with its values, some of them ahead of it. No end group written: not given here.

Columns and labels:
ERAP1 [1] = test: 40 ng of ERAP1 in 20 mM Tris pH 8 buffer containing 100 mM NaCl; conditions: human, 37°C, up to 1 hr
ERAP1 [2] = test: purified recombinant ERAP1 (alanine scan); conditions: human
ERAP1 [3] = test: 1 nM ERAP1; conditions: human, 37°C, up to 1 hr
ERAP1 [4] = test: 40 ng ERAP1; conditions: human, 37°C, up to 1 hr
ERAP1 [5] = test: 7.8 nM of ERAP1; conditions: human, 37°C, up to 1 hr
ERAP1 [6] = test: ERAP1, trimming rate measurements (pmol/µg ERAP1×sec); conditions: human
ERAP1 [7] = test: 800 nM ERAP1; conditions: human, 37°C, up to 1 hr
ERAP1 [8] = test: 15.6 nM of ERAP1; conditions: human, 37°C, up to 1 hr
human recombinant ERAP1 = molecular target: T1, human recombinant ERAP1 (Homo sapiens, UniProt Q9NZ08); test: N-terminus trimming of model peptides by ERAP1, products analysed by reverse-phase HPLC; format: biochemical; conditions: alanine scan, 40 ng of ERAP1, three separate experiments in parallel; RP-HPLC; Figure 3A
T1 construct: we over-expressed human recombinant full-length ERAP1 in insect cell suspension culture; hexa-His (C); myc; made in house; host or cells: Hi5 insect cells (baculovirus; virus made in SF9 cells)
T1 sequence (Q9NZ08 1-948 isoform Q9NZ08-2): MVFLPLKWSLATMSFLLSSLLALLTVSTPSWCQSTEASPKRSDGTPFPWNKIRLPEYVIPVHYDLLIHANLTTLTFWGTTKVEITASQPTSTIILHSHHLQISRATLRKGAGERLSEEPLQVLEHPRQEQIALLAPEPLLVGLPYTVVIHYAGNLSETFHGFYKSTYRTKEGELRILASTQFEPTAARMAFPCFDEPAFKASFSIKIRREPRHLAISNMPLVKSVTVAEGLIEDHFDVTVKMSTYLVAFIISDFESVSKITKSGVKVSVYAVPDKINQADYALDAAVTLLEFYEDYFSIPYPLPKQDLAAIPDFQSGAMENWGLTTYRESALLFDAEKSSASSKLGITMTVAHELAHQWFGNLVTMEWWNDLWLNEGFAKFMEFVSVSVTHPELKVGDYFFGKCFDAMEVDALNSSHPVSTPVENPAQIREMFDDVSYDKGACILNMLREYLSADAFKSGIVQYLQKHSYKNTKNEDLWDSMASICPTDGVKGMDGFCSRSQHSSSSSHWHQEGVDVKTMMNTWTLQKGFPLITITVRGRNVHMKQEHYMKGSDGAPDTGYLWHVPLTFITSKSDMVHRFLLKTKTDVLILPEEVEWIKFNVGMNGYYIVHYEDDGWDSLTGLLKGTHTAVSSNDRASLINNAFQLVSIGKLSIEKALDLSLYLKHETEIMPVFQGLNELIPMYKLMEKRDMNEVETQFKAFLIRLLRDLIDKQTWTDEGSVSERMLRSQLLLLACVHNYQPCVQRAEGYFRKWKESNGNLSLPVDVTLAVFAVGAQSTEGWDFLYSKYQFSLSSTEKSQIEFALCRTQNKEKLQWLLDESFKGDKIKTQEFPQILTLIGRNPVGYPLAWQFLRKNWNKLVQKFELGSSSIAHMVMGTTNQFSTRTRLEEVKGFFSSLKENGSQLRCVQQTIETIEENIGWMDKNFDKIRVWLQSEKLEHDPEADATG
Description: Human recombinant ERAP1 was produced in Hi5 insect cells grown in Excel405™ serum free medium, after infection by baculovirus carrying the ERAP1 gene with a C-terminal hexa-His tag. The enzyme was secreted into the cell medium, which was harvested by centrifugation (3000 rpm, 30 min, 4°C, GSA rotor) in a Sorvall centrifuge. The cell supernatant was subjected to 3 rounds of buffer exchange (10 fold dilution each time) using a large scale diafiltration apparatus versus 5 mM phosphate buffer at pH 7 containing 100 mM NaCl. The supernatant was then concentrated and its composition adjusted to 50 mM phosphate (pH 8), 300 mM NaCl, 10 mM imidazole and immediately loaded onto a HiTrap™ chelating column (Qiagen) that was pre-loaded with Ni(II)SO4. The column was washed with the same buffer containing 20 mM imidazole and the protein was eluted using a 20 mM to 150 mM imidazole gradient. […]
The digestion of model peptides by ERAP1 was followed by analysis of peptide products of the digestion on a reverse phase C18 column (Higgins Analytical 0546-C183). […] The elution was done with a 5% to 40% acetonitrile gradient at 1 ml/min, while following the absorbance at 214 nm or 280 nm. […]
Figure 1 Typical chromatogram of peptide product analysis after ERAP1 digestion. Samples were analyzed by HPLC reverse phase chromatography. […]

[9] = system: ERAP1 (recombinant, Hi5 insect cells); test: purified recombinant ERAP1 in 20 mM Tris pH 8, 100 mM NaCl; conditions: human, 37°C, up to 1 hr

Sequence: LAWANATRSG
cleaved bond (ERAP1 [1]): L-A

Sequence: LYWANATRSG
cleaved bond (ERAP1 [1]): L-Y | cleaved bond (ERAP1 [2]): L-Y

Sequence: LVAFKARKF
cleaved bond (ERAP1 [3]): L-V, 1 hr

Sequence: LYAANATRSG
cleaved bond (ERAP1 [1]): L-Y

Sequence: MYWANATRSG
cleaved bond (ERAP1 [1]): M-Y

Sequence: LSIINFEKL
cleaved bond (ERAP1 [5]): L-S | cleaved bond (ERAP1 [1]): L-S, 1 hr

Sequence: LYWANAARSG
cleaved bond (ERAP1 [1]): L-Y

Sequence: LVNVDYSKL
cleaved bond (ERAP1 [8]): L-V, 1 hr

Sequence: LYWAAATRSG
cleaved bond (ERAP1 [1]): L-Y

Sequence: LYWANATRSA
cleaved bond (ERAP1 [1]): L-Y

Second part, led by results:

not cleaved (ERAP1 [4]): resistant to any trimming after 1 hr | not cleaved (ERAP1 [1]): resistant to any trimming after 1 hr
Sequence: LAAALSIINFEKL

cleaved bond (ERAP1 [1]): L-Y
Sequence: LYWANATRAG

cleaved bond (ERAP1 [1]): L-S, 1 hr
Sequence: LSIINFEKLAAAL

cleaved bond (ERAP1 [5]): L-S, 1 hr
Sequence: LSIINFEAL

cleaved bond (ERAP1 [6]): L-T
Sequence: LTAEEAVET
not cleaved (ERAP1 [7]): completely resistant to trimming after 1 hr with 800 nM ERAP1

cleaved bond (ERAP1 [8]): L-V, 1 hr
Sequence: LVNVDYSAL

percent N-terminus trimming detected (human recombinant ERAP1): Less than 1%
Sequence: LYWANATASG [LYWANATASG]

cleaved bond (ERAP1 [1]): F-Y, 1 hr | cleaved bond [9]: F-Y, 1 hr
Sequence: FYWANATRSG

cleaved bond (ERAP1 [1]): A-Y
Sequence: AYWANATRSG

not cleaved (ERAP1 [2]): Less than 1% trimming | cleaved bond (ERAP1 [6]): L-Y
Sequence: LYWANATASG
